# Results reported in patent US10160762B2, “6-alkyl dihydropyrazolopyrimidinone compounds as PDE2 inhibitors” (Merck Sharp & Dohme Corp., priority 2015, dated 2018).
# Target: T1, Rhesus PDE2A3 (Macaca mulatta, UniProt B3VTJ2)
# T1 construct: made in house; host or cells: AD293 cells, transient transfection; supernatant of sonicated lysate
# T1 sequence (B3VTJ2 1-941): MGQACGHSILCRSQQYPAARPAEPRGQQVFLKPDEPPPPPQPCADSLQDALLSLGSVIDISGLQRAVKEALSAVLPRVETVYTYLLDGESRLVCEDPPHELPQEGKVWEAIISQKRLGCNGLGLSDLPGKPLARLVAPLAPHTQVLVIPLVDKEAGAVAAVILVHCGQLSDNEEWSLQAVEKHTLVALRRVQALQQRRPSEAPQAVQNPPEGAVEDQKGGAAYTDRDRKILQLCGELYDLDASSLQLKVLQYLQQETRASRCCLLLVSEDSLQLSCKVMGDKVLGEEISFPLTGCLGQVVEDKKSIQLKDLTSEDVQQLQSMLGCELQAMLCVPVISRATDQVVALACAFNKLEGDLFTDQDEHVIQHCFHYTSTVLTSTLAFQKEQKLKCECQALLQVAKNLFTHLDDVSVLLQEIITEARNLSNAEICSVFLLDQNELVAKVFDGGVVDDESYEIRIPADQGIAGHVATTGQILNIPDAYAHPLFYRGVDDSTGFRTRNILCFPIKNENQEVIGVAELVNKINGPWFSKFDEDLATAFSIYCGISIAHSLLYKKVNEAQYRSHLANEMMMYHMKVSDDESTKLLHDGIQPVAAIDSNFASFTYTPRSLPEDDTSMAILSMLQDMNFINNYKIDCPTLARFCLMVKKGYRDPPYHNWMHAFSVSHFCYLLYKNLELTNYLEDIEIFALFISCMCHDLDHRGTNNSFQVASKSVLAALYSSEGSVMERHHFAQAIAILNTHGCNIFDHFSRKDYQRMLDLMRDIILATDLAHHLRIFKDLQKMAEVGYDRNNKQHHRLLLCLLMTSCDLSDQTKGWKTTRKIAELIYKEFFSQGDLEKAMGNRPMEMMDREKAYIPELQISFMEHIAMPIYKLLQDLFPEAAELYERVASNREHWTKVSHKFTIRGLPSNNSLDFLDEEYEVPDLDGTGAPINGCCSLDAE
# Test: PDE2 fluorescence polarization (IMAP FP) inhibition assay, rhesus PDE2A3
# Type: biochemical, rhesus macaque
# Conditions: Lab A; read-out: Rhesus PDE2 Ki (nM) Lab A
# Description: The activity of the compounds in accordance with the present invention as PDE2 inhibitors may be readily determined using a fluorescence polarization (FP) methodology (Huang, W., et al., J. Biomol Screen, 2002, 7: 215).
# The PDE2 inhibitory activity of the compounds of the present invention was determined in accordance with the following experimental method. Rhesus PDE2A3 was amplified from rhesus macaque brain cDNA (Biochain Institute, Hayward, Calif.) using primers based on human PDE2A sequence (accession NM_002599.3) where the forward primer containing a Kozak consensus was 5′-[…]-3′ and the reverse primer was 5′-[…]-3′. Amplification with Easy-A High-Fidelity PCR cloning enzyme (Stratagene, La Jolla, Calif.) was 95° C. for 2 minutes followed by thirty three cycles of 95° C. for 40 seconds, 52° C. for 30 seconds, and 72° C. for 2 minutes 48 seconds. Final extension was 72° C. for 7 minutes. The PCR product was TA cloned into pcDNA3.3-TOPO (Invitrogen, Carlsbad, Calif.) according to standard protocol. A consensus sequence was developed from multiple clones and then deposited into GenBank (EU812167). AD293 cells (Stratagene, La Jolla, Calif.) with 70-80% confluency were transiently transfected with rhesus PDE2A3/pcDNA3.3-TOPO using Lipofectamine 2000 according to manufacturer specifications (Invitrogen, Carlsbad, Calif.). Cells were harvested 48 hours post-transfection and lysed by sonication (setting 3, 10×5 sec pulses) in a buffer containing 20 mM HEPES pH 7.4, 1 mM EDTA and Complete Protease Inhibitor Cocktail Tablets (Roche, Indianapolis, Ind.). Lysate was collected by centrifugation at 75,000×g for 20 minutes at 4° C. and supernatant utilized for evaluation of PDE2 activity. The fluorescence polarization assay for cyclic nucleotide phosphodiesterases was performed using an IMAP® FP kit supplied by Molecular Devices, Sunnyvale, Calif. (product #R8139). […] Assays were performed at room temperature in 384-well microtiter plates with an incubation volume of 20.2 μL. Solutions of test compounds were prepared in DMSO and serially diluted with DMSO to yield 8 μL of each of 10 solutions differing by 3-fold in concentration, at 32 serial dilutions per plate. […] 0% of inhibition is determined by using DMSO (1% final concentrations).
# A Labcyte Echo 555 (Labcyte, Sunnyvale, Calif.) is used to dispense 200 nL from each well of the titration plate to the 384 well assay plate. Ten microliters of a solution of enzyme (1/2000 final dilution from aliquots; sufficient to produce 20% substrate conversion) was added to the assay plate. Next 10 uL of a separate solution of the substrate FAM-labeled cAMP (50 nM final concentration product # R7506 from Molecular Devices) and the activator cGMP (1 uM final concentration), prepared in the assay buffer (10 mM Tris HCl, pH 7.2, 10 mM MgCl2, 0.05% NaN3 0.01% Tween-20, and 1 mM DTT) was added to the assay plate and shaken to mix. The reaction is allowed to proceed at room temperature for 60 minutes. A binding solution is then made from the kit components, comprised of 80% Solution A, 20% Solution B and binding reagent at a volume of 1/600 the total binding solution. The enzymatic reaction is stopped by addition of 60 μL of the binding solution to each well of the assay plates and the plates are sealed and shaken for 30 seconds. The plate was incubated at room temperature for at least one hour prior to determining the fluorescence polarization (FP). The parallel and perpendicular fluorescence of each well of the plate was measured using a Tecan Genios Pro plate reader (Tecan, Switzerland) or Perkin Elmer EnVision™ plate reader (Waltham, Mass.). Fluorescence polarization (mP) was calculated from the parallel (S) and perpendicular (P) fluorescence of each sample well and the analogous values for the median control well, containing only substrate (So and Po), using the following equation: Polarization(mP)=1000*(S/So−P/Po)/(S/So+P/Po).
row,Ki,Compound
1,386 nM,"Cc1nn(C(C)c2ccc(C(F)(F)F)cc2)c2nc(C3CCOC3)[nH]c(=O)c12 (stereo not drawn) [Example 33, 3-Methyl-6-(tetrahydrofuran-3-yl)-1-(1-(4-(trifluoromethyl)phenyl)ethyl)-1H-pyrazolo[3,4-d]pyrimidin-4(5H)-one]"
2,583 nM,"Cc1nn(C(C)c2ccc(C(F)(F)F)cc2)c2nc(C(C)O)[nH]c(=O)c12 (stereo not drawn) [Example 29, 6-(1-Hydroxyethyl)-3-methyl-1-(1-(4-(trifluoromethyl)phenyl)ethyl)-1H-pyrazolo[3,4-d]pyrimidin-4(5H)-one]"
3,421 nM,"Cc1nn(C(C)c2ccc(C(F)(F)F)cc2)c2nc(C3CCOCC3)[nH]c(=O)c12 (stereo not drawn) [Example 55, 3-Methyl-6-(tetrahydro-2H-pyran-4-yl)-1-{1-[4-(trifluoromethyl)phenyl]ethyl}-1,5-dihydro-4H-pyrazolo[3,4-d]pyrimidin-4-one]"
4,> 1000 nM,"Cc1nc2c(c(C)nn2C(C)C(=O)Nc2ccc(C(F)(F)F)cc2)c(=O)[nH]1 (stereo not drawn) [Example 334, 2-(3,6-Dimethyl-4-oxo-4,5-dihydropyrazolo[3,4-d]pyrimidin-1-yl)-N-(4-(trifluoromethyl)phenyl)propanamide]"
5,275 nM,"Cc1nn(C(C)c2ccc(C(F)(F)F)cc2)c2nc(CCC(=O)N(C)C)[nH]c(=O)c12 (stereo not drawn) [Example 32, N,N-Dimethyl-3-(3-methyl-4-oxo-1-(1-(4-(trifluoromethyl)phenyl)ethyl)-4,5-dihydro-1H-pyrazolo[3,4-d]pyrimidin-6-yl)propanamide]"
6,> 1000 nM,"Cc1nc2c(c(C)nn2CC(O)c2ccc(C(F)(F)F)cc2)c(=O)[nH]1 (stereo not drawn) [Example 335, 1-(2-Hydroxy-2-(4-(trifluoromethyl)phenyl)ethyl)-3,6-dimethyl-1H-pyrazolo[3,4-d]pyrimidin-4(5H)-one]"

# Same assay, conditions: Lab B; read-out: Rhesus PDE2 Ki (nM) Lab B
row,Ki,Compound
1,757 nM,"Cc1nc2c(c(CS(C)(=O)=O)nn2C(C)c2ccc(C(F)(F)F)cc2)c(=O)[nH]1 (single isomer, unassigned) [Example 273]"
2,~29000 nM,"Cc1nc2c(c(C)nn2C(C)C(C)(O)c2ccc(C(F)(F)F)cc2)c(=O)[nH]1 (stereo not drawn) [Example 333, 1-(3-Hydroxy-3-(4-(trifluoromethyl)phenyl)butan-2-yl)-3,6-dimethyl-1H-pyrazolo[3,4-d]pyrimidin-4(5H)-one]"
3,703 nM,"Cc1nc2c(c(C#N)nn2C(C)c2ccc(C(F)(F)F)cc2)c(=O)[nH]1 (single isomer, unassigned) [Example 253]"
4,107 nM,"COc1ccc(Cc2nc3c(c(CF)nn3C(C)c3ccc(C(F)(F)F)cc3)c(=O)[nH]2)cc1 (single isomer, unassigned) [Example 218, (R)- or (S)-3-(Fluoromethyl)-6-(4-methoxybenzyl)-1-(1-(4-(trifluoromethyl)phenyl)ethyl)-1H-pyrazolo[3,4-d]pyrimidin-4(5H)-one]"
5,~2590 nM,"CC(c1ccc(C(F)(F)F)cc1)n1nc(CO)c2c(=O)[nH]c(-c3ccco3)nc21 (racemic) [Example 294, 6-Furan-2-yl-3-(hydroxymethyl)-1-{1-[4-(trifluoromethyl)phenyl]ethyl}-1,5-dihydro-4H-pyrazolo[3,4-d]pyrimidin-4-one]"
6,> 2970 nM,"CC(c1ccc(C(F)(F)F)cc1)n1nc(CO)c2c(=O)[nH]c(-c3cnn(C)c3)nc21 (racemic) [Example 295, 3-(Hydroxymethyl)-6-(1-methyl-1H-pyrazol-4-yl)-1-{1-[4-(trifluoromethyl)phenyl]ethyl}-1,5-dihydro-4H-pyrazolo[3,4-d]pyrimidin-4-one]"
7,531 nM,"Cc1nn(C(C)c2ccc(C(F)(F)F)cc2)c2nc(C3CCOC3)[nH]c(=O)c12 (stereo not drawn) [Example 33, 3-Methyl-6-(tetrahydrofuran-3-yl)-1-(1-(4-(trifluoromethyl)phenyl)ethyl)-1H-pyrazolo[3,4-d]pyrimidin-4(5H)-one]"
8,416 nM,"Cc1nn(C(C)c2ccc(C(F)(F)F)cc2)c2nc(CCC(=O)N(C)C)[nH]c(=O)c12 (stereo not drawn) [Example 32, N,N-Dimethyl-3-(3-methyl-4-oxo-1-(1-(4-(trifluoromethyl)phenyl)ethyl)-4,5-dihydro-1H-pyrazolo[3,4-d]pyrimidin-6-yl)propanamide]"
9,289 nM,"Cc1nc2c(c(CO)nn2C(c2ccc(C(F)(F)F)cc2)C(C)(C)C)c(=O)[nH]1 (single isomer, unassigned) [Example 82, (R)- or (S)-1-(2,2-Dimethyl-1-(4-(trifluoromethyl)phenyl)-propyl)-3-(hydroxymethyl)-6-methyl-1H-pyrazolo[3,4-d]pyrimidin-4(5H)-one]"
10,2410 nM,"Cc1nc2c(c(C)nn2C(C)CNc2ccc(C(F)(F)F)cc2)c(=O)[nH]1 (stereo not drawn) [Example 330, 3,6-Dimethyl-1-(1-(4-(trifluoromethyl)phenylamino)propan-2-yl)-1H-pyrazolo[3,4-d]pyrimidin-4(5H)-one]"
11,987 nM,"Cc1nc2c(c(CN)nn2C(C)c2ccc(C(F)(F)F)cc2)c(=O)[nH]1 (single isomer, unassigned) [Example 275]"
12,1210 nM,"Cc1nc2c(c(CS(C)(=O)=O)nn2C(C)c2ccc(C(F)(F)F)cc2)c(=O)[nH]1 (single isomer, unassigned) [Example 272]"
13,413 nM,"Cc1nc2c(c(CO)nn2C(c2ccc(C(F)(F)F)c(F)c2)C(C)(C)C)c(=O)[nH]1 (single isomer, unassigned) [Example 128, (R)- or (S)-1-(1-(3-Fluoro-4-(trifluoromethyl)phenyl)-2,2-dimethylpropyl)-3-(hydroxyl-methyl)-6-methyl-1H-pyrazolo-[3,4-d]pyrimidin-4(5H)-one]"
14,189 nM,"COc1cccc(Cc2nc3c(c(CF)nn3C(C)c3ccc(C(F)(F)F)cc3)c(=O)[nH]2)c1 (single isomer, unassigned) [Example 220, (R)- or (S)-3-(Fluoromethyl)-6-(3-methoxybenzyl)-1-(1-(4-(trifluoromethyl)phenyl)ethyl)-1H-pyrazolo[3,4-d]pyrimidin-4(5H)-one]"

# Target: T2, human PDE2A1 (Homo sapiens, UniProt O00408)
# T2 construct: GST; purchased BPS Bioscience (San Diego, Calif.) 60020; host or cells: insect cells
# T2 sequence (O00408 1-920 isoform O00408-2): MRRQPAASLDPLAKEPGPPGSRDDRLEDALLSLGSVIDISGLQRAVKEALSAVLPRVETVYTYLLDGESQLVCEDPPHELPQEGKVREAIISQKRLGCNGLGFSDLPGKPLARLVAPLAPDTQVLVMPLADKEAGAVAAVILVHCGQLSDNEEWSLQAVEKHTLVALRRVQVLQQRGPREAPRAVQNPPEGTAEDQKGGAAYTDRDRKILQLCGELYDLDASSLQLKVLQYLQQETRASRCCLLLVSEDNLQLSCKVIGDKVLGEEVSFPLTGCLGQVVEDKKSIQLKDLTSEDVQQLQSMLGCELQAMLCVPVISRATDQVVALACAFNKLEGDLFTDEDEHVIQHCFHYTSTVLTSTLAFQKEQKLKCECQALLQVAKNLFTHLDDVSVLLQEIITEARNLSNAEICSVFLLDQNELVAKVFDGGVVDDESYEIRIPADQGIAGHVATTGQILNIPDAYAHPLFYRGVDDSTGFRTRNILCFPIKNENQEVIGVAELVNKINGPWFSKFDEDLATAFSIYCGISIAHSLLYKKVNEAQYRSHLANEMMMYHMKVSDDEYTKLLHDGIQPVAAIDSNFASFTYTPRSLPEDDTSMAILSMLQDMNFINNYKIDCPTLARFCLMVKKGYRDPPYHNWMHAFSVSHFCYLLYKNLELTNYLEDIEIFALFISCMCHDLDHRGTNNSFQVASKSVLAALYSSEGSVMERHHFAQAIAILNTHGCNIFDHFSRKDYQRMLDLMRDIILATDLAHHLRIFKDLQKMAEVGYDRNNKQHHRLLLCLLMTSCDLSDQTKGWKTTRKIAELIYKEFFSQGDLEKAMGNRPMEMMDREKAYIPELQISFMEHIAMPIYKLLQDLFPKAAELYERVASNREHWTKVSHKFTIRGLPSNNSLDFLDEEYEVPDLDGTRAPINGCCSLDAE
# Test: IMAP FP PDE assay, human PDE2A1
# Type: biochemical
# Conditions: Lab B; read-out: Human PDE2 Ki (nM) Lab B
# In short: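 FP (IMAP) read after 60 min room-temperature reaction of insect-cell GST-human PDE2A1 with 50 nM FAM-cAMP plus 1000 nM cGMP (pH 7.2 Tris, Mg2+, DTT). Compounds titrated 3-fold over ten points. Apparent Ki derived assuming KM of 10,000 nM; enzyme at 20% substrate turnover.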
row,Ki,Compound
1,278 nM,"COCC(c1ccc(C(F)(F)F)cc1)n1nc(C(F)F)c2c(=O)[nH]c(C)nc21 (single isomer, unassigned) [Example 174, (S)- or (R)-3-(Difluoromethyl)-1-(2-methoxy-1-(4-(trifluoromethyl)phenyl)ethyl)-6-methyl-1H-pyrazolo[3,4-d]pyrimidin-4(5H)-one]"
